For experiment [1], the system named is M184V pseudotyped virus in U373 cells. It is filed as cell-based, HIV.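 Note: reported value is IC50.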
Experiment [2] deals with WT pseudotyped virus (NL4-3 provirus with HIV gp160 envelope) in U373 cells. Briefly: PSV assay (pseudotyped virus assay), WT. The note with it: Human immunodeficiency virus 1, NL43, U373 MG, read-out: WT IC50.
Text: A pseudotyped virus assay (PSV) was used to assess the potency of the compounds. Replication defective virus was produced by co-transfection of a plasmid containing an NL4-3 provirus [containing a mutation in the envelope open reading frame (ORF) and a luciferase reporter gene replacing the nef ORF] and a CMV-promoter expression plasmid containing an ORF for various HIV gp160 envelope clones. The harvested virus was stored at −80 C in small aliquots and the titer of the virus measured to produce a robust signal for antiviral assays.
The PSV assay was performed by using U373 cells stably transformed to express human CD4, the primary receptor for HIV entry and either human CXCR4 or human CCR5 which are the co-receptors required for HIV entry as target cells for infection. […] This dose-range was applied to U373 cells and the pre-made pseudotyped virus added. The amount of luciferase signal produced after 3 days of culture was used to reflect the level of pseudotyped virus infection. […] IC50 values were determined from a 10 point dose response curve using 3-4-fold serial dilution for each compound, which spans a concentration range>1000 fold.
These values are plotted against the molar compound concentrations using the standard four parameter logistic equation:
y=((Vmax*x^n)/(K^n+x^n))+Y2 • where: • Y2=minimum y n=slope factor • Vmax=maximum y x=compound concentration [M] • K=EC50
Where [3] appears, read: Table 4, luciferase signal after 3 days of culture.
Setting [4] is: Table 5, mean of a greater number of data replicates.

SMILES strings stand for the structures. Like-named read-outs stand apart in the source and are kept apart here.

Usually IC50 stands for the concentration at which inhibition is half-maximal. On to `C#C[C@]1(COC(=O)CCCCCC)O[C@@H](n2cnc3c(N)nc(F)nc32)C[C@@H]1O` [Example 2, ((2R,3S,5R)-5-(6-amino-2-fluoro-9H-purin-9-yl)-2-ethynyl-3-hydroxytetrahydrofuran-2-yl)methyl heptanoate], for which the 50% inhibitory concentration (IC50) came to 12 nM in experiment [1] (setting [3]), 15 nM in experiment [1] (setting [4]), 3 nM in experiment [2] (72 h) and 3 nM in experiment [2].
As to `C#C[C@]1(COC(=O)CCCCCCCCC)O[C@@H](n2cnc3c(N)nc(F)nc32)C[C@@H]1O` [Example 3, ((2R,3S,5R)-5-(6-amino-2-fluoro-9H-purin-9-yl)-2-ethynyl-3-hydroxytetrahydrofuran-2-yl)methyl decanoate], the IC50 in experiment [1] (setting [3]) turned out to be 15 nM; in experiment [1] (setting [4]), 14 nM; in experiment [2] (72 h), 2 nM; in experiment [2], 3 nM.
As to `C#C[C@]1(COC(C)=O)O[C@@H](n2cnc3c(N)nc(F)nc32)C[C@@H]1O` [Example 7, ((2R,3S,5R)-5-(6-amino-2-fluoro-9H-purin-9-yl)-2-ethynyl-3-hydroxytetrahydrofuran-2-yl)methyl acetate], the half-maximal inhibitory concentration (IC50) in experiment [1] (setting [4]) worked out at 55 nM; in experiment [2] it was 14 nM.
`C#C[C@]1(COC(=O)CC)O[C@@H](n2cnc3c(N)nc(F)nc32)C[C@@H]1O` [Example 8, ((2R,3S,5R)-5-(6-amino-2-fluoro-9H-purin-9-yl)-2-ethynyl-3-hydroxytetrahydrofuran-2-yl)methyl propionate]: the IC50 is 39 nM in experiment [1] (setting [4]) and 8 nM in experiment [2].
The matching figures for `C#C[C@]1(COC(=O)CCC)O[C@@H](n2cnc3c(N)nc(F)nc32)C[C@@H]1O` [Example 9, ((2R,3S,5R)-5-(6-amino-2-fluoro-9H-purin-9-yl)-2-ethynyl-3-hydroxytetrahydrofuran-2-yl)methyl butyrate]: 26 nM and 5 nM.
The matching figures for `C#C[C@]1(COC(=O)CCCC)O[C@@H](n2cnc3c(N)nc(F)nc32)C[C@@H]1O` [Example 10, ((2R,3S,5R)-5-(6-amino-2-fluoro-9H-purin-9-yl)-2-ethynyl-3-hydroxytetrahydrofuran-2-yl)methyl pentanoate]: 19 nM and 3 nM.
For `C#C[C@]1(COC(=O)CCCCCCCC)O[C@@H](n2cnc3c(N)nc(F)nc32)C[C@@H]1O` [Example 11, ((2R,3S,5R)-5-(6-amino-2-fluoro-9H-purin-9-yl)-2-ethynyl-3-hydroxytetrahydrofuran-2-yl)methyl nonanoate] the same measures were 13 nM and 3 nM.
For `C#C[C@]1(COC(=O)CCCCCCCCCC)O[C@@H](n2cnc3c(N)nc(F)nc32)C[C@@H]1O` [Example 12, ((2R,3S,5R)-5-(6-amino-2-fluoro-9H-purin-9-yl)-2-ethynyl-3-hydroxytetrahydrofuran-2-yl)methyl undecanoate], the half-maximal inhibitory concentration (IC50) in experiment [1] (setting [4]) amounted to 9 nM; in experiment [2] it was 2 nM.
For `C#C[C@]1(COC(=O)CCCCCCCCCCCC)O[C@@H](n2cnc3c(N)nc(F)nc32)C[C@@H]1O` [Example 13, ((2R,3S,5R)-5-(6-amino-2-fluoro-9H-purin-9-yl)-2-ethynyl-3-hydroxytetrahydrofuran-2-yl)methyl tridecanoate] the same measures were 12 nM and 2 nM.
In the case of `C#C[C@]1(COC(=O)CCCCCCCCCCCCCC)O[C@@H](n2cnc3c(N)nc(F)nc32)C[C@@H]1O` [Example 14, ((2R,3S,5R)-5-(6-amino-2-fluoro-9H-purin-9-yl)-2-ethynyl-3-hydroxytetrahydrofuran-2-yl)methyl pentadecanoate], the half-maximal inhibitory concentration (IC50) was found to be 11 nM in experiment [1] (setting [4]) and 2 nM in experiment [2].
The matching figures for `C#C[C@]1(COC(=O)CCCCCCCCCCCCCCCC)O[C@@H](n2cnc3c(N)nc(F)nc32)C[C@@H]1O` [Example 15, ((2R,3S,5R)-5-(6-amino-2-fluoro-9H-purin-9-yl)-2-ethynyl-3-hydroxytetrahydrofuran-2-yl)methyl heptadecanoate]: 26 nM and 4 nM.
As for `C#C[C@]1(COC(=O)CCCCCCCC#CC)O[C@@H](n2cnc3c(N)nc(F)nc32)C[C@@H]1O` [Example 17, ((2R,3S,5R)-5-(6-amino-2-fluoro-9H-purin-9-yl)-2-ethynyl-3-hydroxytetrahydrofuran-2-yl)methyl undec-9-ynoate], the half-maximal inhibitory concentration (IC50) in experiment [1] (setting [4]) turned out to be 13 nM; in experiment [2], 3 nM.
The matching figures for `C#C[C@]1(COC(=O)CCCCCCCC#CCCCCCCCC)O[C@@H](n2cnc3c(N)nc(F)nc32)C[C@@H]1O` [Example 18, ((2R,3S,5R)-5-(6-amino-2-fluoro-9H-purin-9-yl)-2-ethynyl-3-hydroxytetrahydrofuran-2-yl)methyl octadec-9-ynoate]: 14 nM and 2 nM.
The matching figures for `C#C[C@]1(COC(=O)C(C)(C)C)O[C@@H](n2cnc3c(N)nc(F)nc32)C[C@@H]1O` [Example 19, ((2R,3S,5R)-5-(6-amino-2-fluoro-9H-purin-9-yl)-2-ethynyl-3-hydroxytetrahydrofuran-2-yl)methyl pivalate]: 150 nM and 30 nM.
As for `C#C[C@]1(COC(=O)C(C)(C)CCC)O[C@@H](n2cnc3c(N)nc(F)nc32)C[C@@H]1O` [Example 20, ((2R,3S,5R)-5-(6-amino-2-fluoro-9H-purin-9-yl)-2-ethynyl-3-hydroxytetrahydrofuran-2-yl)methyl 2,2-dimethylpentanoate], the concentration for half-maximal inhibition (IC50) is 91 nM in experiment [1] (setting [4]) and 25 nM in experiment [2].
The matching figures for `C#C[C@]1(COC(=O)C(CCCC)CCCCCC)O[C@@H](n2cnc3c(N)nc(F)nc32)C[C@@H]1O` (stereo partly drawn) [Example 21, ((2R,3S,5R)-5-(6-amino-2-fluoro-9H-purin-9-yl)-2-ethynyl-3-hydroxytetrahydrofuran-2-yl)methyl 2-butyloctanoate]: 113 nM and 25 nM.
For `C#C[C@]1(COC(=O)C(CCCCCC)CCCCCCCC)O[C@@H](n2cnc3c(N)nc(F)nc32)C[C@@H]1O` (stereo partly drawn) [Example 22, ((2R,3S,5R)-5-(6-amino-2-fluoro-9H-purin-9-yl)-2-ethynyl-3-hydroxytetrahydrofuran-2-yl)methyl 2-hexyldecanoate] the same measures were 176 nM and 36 nM.
For the compound `C#C[C@]1(COC(=O)C(C)CCCCC)O[C@@H](n2cnc3c(N)nc(F)nc32)C[C@@H]1O` (stereo partly drawn) [Example 23, ((2R,3S,5R)-5-(6-amino-2-fluoro-9H-purin-9-yl)-2-ethynyl-3-hydroxytetrahydrofuran-2-yl)methyl 2-methylheptanoate], the IC50 in experiment [1] (setting [4]) turned out to be 7 nM; in experiment [2] it was 1 nM.
For `C#C[C@]1(COC(=O)CC(F)(F)F)O[C@@H](n2cnc3c(N)nc(F)nc32)C[C@@H]1O` [Example 24, ((2R,3S,5R)-5-(6-amino-2-fluoro-9H-purin-9-yl)-2-ethynyl-3-hydroxytetrahydrofuran-2-yl)methyl 3,3,3-trifluoropropanoate] the same measures were 37 nM and 8 nM.
In the case of `C#C[C@]1(COC(=O)C(C)(C)C(F)(F)F)O[C@@H](n2cnc3c(N)nc(F)nc32)C[C@@H]1O` [Example 25, ((2R,3S,5R)-5-(6-amino-2-fluoro-9H-purin-9-yl)-2-ethynyl-3-hydroxytetrahydrofuran-2-yl)methyl 3,3,3-trifluoro-2,2-dimethylpropanoate], the IC50 in experiment [1] (setting [4]) was 90 nM; in experiment [2], 21 nM.

For the origin of these results see US20200407393A1, “Medical Use” (priority 2018, published 2020).
